From patent publication US8846367B2, “Coryneform bacterium transformant and process for producing phenol using the same” (Green Phenol Development Co., Ltd., priority 2010, dated 2014)
Like-named read-outs stand apart in the source and are kept apart here.

Tests used:
[1] = tested on: Escherichia coli JM109; conditions: aerobic culture, LB liquid medium, 37° C.
Method: (§1) A growth inhibition test in aerobic culture was performed to examine the influence of phenol on Corynebacterium glutamicum, Escherichia coli, and Pseudomonas putida. Pseudomonas putida S12, which was used for the test, is reported to be a solvent-resistant strain. In the report, disclosed is an unparalleled technology using the strain as a host in phenol production.
Escherichia coli JM109 was applied to LB agar medium (1% polypeptone, 0.5% yeast extract, 0.5% NaCl and 1.5% agar) and was left stand in the dark at 37° C. for 15 hours.
An inoculation loop of the Escherichia coli JM109 grown on a plate as above was inoculated into a test tube containing 10 mL of LB liquid medium (1% polypeptone, 0.5% yeast extract, and 0.5% NaCl), and aerobic culture was performed with shaking at 37° C. for 13 hours.
(§2) The Escherichia coli JM109 grown in the above conditions was inoculated into 100 mL of LB liquid medium in such a way that the initial bacterial cell concentration would be OD610=0.05, phenol was added at the same time in such a way that the final concentration would be 0, 0.16, or 0.20 mM, and aerobic culture was performed with shaking at 37° C. The growth of bacterial cells was determined by absorbance measurement at OD610.

[2] = tested on: Pseudomonas putida F1; conditions: aerobic culture, LB (+glucose) liquid medium, 30° C.
Method: as §1
(§3) Pseudomonas putida F1 and S12 were applied to LB agar medium (1% polypeptone, 0.5% yeast extract, 0.5% NaCl and 1.5% agar) and were left stand in the dark at 30° C. for 15 hours.
(§4) An inoculation loop of each of the Pseudomonas putida F1 and S12 grown on a plate as above was inoculated into a test tube containing 10 mL of LB (+glucose) liquid medium (1% polypeptone, 0.5% yeast extract, 0.5% NaCl and 0.4% glucose), and aerobic culture was performed with shaking at 30° C. for 13 hours.
as §2, with “The Pseudomonas putida F1 and S12” for “The Escherichia coli JM109”, “conditions were each” for “conditions was”, “LB (+glucose)” for “LB”, “0, 0.10,” for “0, 0.16,”, “at 30°” for “at 37°”

[3] = tested on: Pseudomonas putida S12; conditions: aerobic culture, LB (+glucose) liquid medium, 30° C.
Method: as §1, §3, §4
as §2, with “The Pseudomonas putida F1 and S12” for “The Escherichia coli JM109”, “conditions were each” for “conditions was”, “LB (+glucose)” for “LB”, “0, 0.10,” for “0, 0.16,”, “at 30°” for “at 37°”

[4] = tested on: Corynebacterium glutamicum R; conditions: aerobic culture, A liquid medium, 33° C.
Method: as §1
Corynebacterium glutamicum R was applied to A agar medium (2 g of (NH2)2CO, 7 g of (NH4)2SO4, 0.5 g of KH2PO4, 0.5 g of K2HPO4, 0.5 g of MgSO4.7H2O, 1 mL of 0.06% (w/v) Fe2SO4.7H2O+0.042% (w/v) MnSO4.2H2O, 1 mL of 0.02% (w/v) biotin solution, 2 mL of 0.01% (w/v) thiamin solution, 2 g of yeast extract, 7 g of vitamin assay casamino acid, 40 g of glucose, and 15 g of agar were suspended in 1 L of distilled water) and was left stand in the dark at 33° C. for 15 hours.
An inoculation loop of the Corynebacterium glutamicum R grown on a plate as above was inoculated into a test tube containing 10 mL of A liquid medium (2 g of (NH2)2CO, 7 g of (NH4)2SO4, 0.5 g of KH2PO4, 0.5 g of K2HPO4, 0.5 g of MgSO4.7H2O, 1 mL of 0.06% (w/v) Fe2SO4.7H2O+0.042% (w/v) MnSO4.2H2O, 1 mL of 0.02% (w/v) biotin solution, 2 mL of 0.01% (w/v) thiamin solution, 2 g of yeast extract, 7 g of vitamin assay casamino acid, and 40 g of glucose were suspended in 1 L of distilled water) and was aerobically cultured with shaking at 33° C. for 13 hours.
as §2, with “Corynebacterium glutamicum R” for “Escherichia coli JM109”, “A” for “LB”, “0.16, 0.2, 0.24,” for “0.16,”, “0.32” for “0.20”, “33°” for “37°”

Oc1ccccc1 [phenol]
proliferation of Escherichia coli (OD610) ([1]; 0.16% phenol): significantly affected
proliferation of Escherichia coli (OD610) ([1]; 0.20% phenol): completely inhibited
proliferation of Pseudomonas putida F1 (OD610) ([2]; 0.10% phenol): significantly affected
proliferation of Pseudomonas putida F1 (OD610) ([2]; 0.20% phenol): completely inhibited
proliferation of Pseudomonas putida S12 (OD610) ([3]; 0.10% phenol): significantly affected
proliferation of Pseudomonas putida S12 (OD610) ([3]; 0.20% phenol): completely inhibited
proliferation of Corynebacterium glutamicum (OD610) ([4]; 0.16% phenol): hardly affected
proliferation of Corynebacterium glutamicum (OD610) ([4]; 0.20% phenol): favorable growth
proliferation of Corynebacterium glutamicum (OD610) ([4]; 0.24% phenol): able to proliferate
